# Measured values published in publication PMC5795001, “The activity of the C4-dicarboxylic acid chemoreceptor of Pseudomonas aeruginosa is controlled by chemoattractants and antagonists” (Scientific Reports, 2018).
# “Also recorded” adds a separate entry of the source.
# Key:
# PA2652-LBD [1] = target: T1, PA2652-LBD (Pseudomonas aeruginosa, UniProt Q9I0I6); assay type: binding, Pseudomonas aeruginosa PAO1; details: for Tm increases: DSF screening as described in text, 2 °C threshold for significant hits; for Tm Shift: Biolog arrays PM1, PM2A, PM3b, PM4a, PM5, relative to ligand-free protein Tm 45.5 °C
# T1 construct: The DNA fragment encoding the LBD of PA2652 (Lys^34–Thr^205) was amplified; His-tag (vector-encoded by pET28b(+) via NdeI site); made in house; host or cells: Escherichia coli BL21 (DE3)
# Source text: To identify ligands that may bind to the LBD of PA2652, we conducted Differential Scanning Fluorimetry (DSF) based high throughput ligand screening assays as described previously[37],[38]. DSF analyses permit the determination of melting temperature (Tm) values, which corresponds to the temperature at which half the protein is in its native conformation whereas the remaining half has undergone thermal unfolding. Since ligand binding typically enhances the thermal stability of proteins, increases in the Tm in the presence of ligands may be indicative of specific binding. We screened 450 different compounds available in five different ligand arrays from Biolog (Supplementary Fig. S3). The screened collection included different carbon and nitrogen sources, phosphorous and sulfurous compounds as well as different nutrient supplements.
# Thermal shift assays were performed on a MyIQ2 Real-Time PCR instrument (BioRad). Ligands from the different compound arrays (Biolog, Hayward, CA, USA; see Supplementary Fig. S3) were dissolved in 50 μl of MilliQ water, which, according to the manufacturer, corresponds to a concentration of 10–20 mM. Screening was performed using 96 wells plates. Each well contained 20 μM of protein dialyzed into TNG buffer (20 mM Tris/HCl, 150 mM NaCl, 10% (v/v) glycerol, pH 6.7), 2.5 μl of the resuspended compounds and SYPRO Orange (Life Technologies) at 5× concentration. In a single well (ligand free protein) the compound was substituted by water. Samples were heated from 23 °C to 85 °C at a scan rate of 1 °C/min. The protein unfolding curves were obtained by following the changes in SYPRO Orange fluorescence. Melting temperatures were determined using the first derivative values from the raw fluorescence data.
# PA2652-LBD [2] = target: T1, PA2652-LBD; assay: biochemical; assay type: binding, Pseudomonas aeruginosa PAO1; details: for Binding in ITC: YES/NO
# Experimental: To unambiguously determine ligand binding, we conducted Isothermal Titration Calorimetry (ITC)[40] binding studies with the purified protein.
# Experiments were conducted on a VP-microcalorimeter (Microcal, Amherst, MA, USA) at 20 °C. PA2652-LBD was dialyzed overnight against TNG buffer, adjusted to a concentration of 20–35 μM and placed into the sample cell of the instrument. The protein was titrated by the injection of 9.6–14.4 μl aliquots of 1–20 mM ligand solutions that were prepared in TNG buffer (20 mM Tris/HCl, 150 mM NaCl, 10% (v/v) glycerol, pH 6.8) immediately before use. The mean enthalpies measured from the injection of ligands into buffer were subtracted from raw titration data prior to data analysis with the MicroCal version of ORIGIN. Data were fitted with the “One binding site model”.
# [3] = test system: Pseudomonas aeruginosa PAO1 (wt and PA2652 mutant); assay: Growth experiments with ligands as sole carbon source; assay type: cell-based; details: M9 minimal medium, 10 mM carbon source
# Source text: To evaluate the physiological relevance of the ligands identified, we first addressed the question of whether they could support bacterial growth as sole carbon source. To this end, we conducted growth experiments of the wild type (wt) strain and a mutant defective in PA2652 in minimal medium supplemented with the different ligands as sole carbon sources.
# Bacterial strains used in this study are listed in Supplementary Table S3. Pseudomonas aeruginosa PAO1 and its derivative strains were routinely grown at 37 °C in Luria Broth (LB; 5 g yeast extract l^−1, 10 g Bacto tryptone l^−1 and 5 g NaCl l^−1) or M9 medium supplemented with 1 mM MgSO4, 6 mg l^−1 Fe-citrate, trace elements[81] and 15 mM glucose as carbon source. For growth experiments to assess the capacity of PA2652-LBD ligands to support growth a sole C-source, PAO1 cells were pre-cultured overnight in M9 medium supplemented with 10 mM glucose and washed twice with M9 medium salts, prior to the inoculation of M9 medium containing10 mM of the different carbon sources. When necessary, the pH of the medium was adjusted to 7.0 prior to inoculation. Bacterial growth over the time was monitored using Bioscreen Microbiological Growth Analyser (Oy Growth Curves Ab Ltd, Helsinki, Finland). Escherichia coli strains were grown at 37 °C in LB. Escherichia coli DH5α was used as a host for gene cloning. When appropriate, antibiotics were used at the following final concentrations (in µg ml^−1): kanamycin, 25 (E. coli strains) and 100 (Pseudomonas strains); tetracycline, 40.
# [4] = test system: Pseudomonas aeruginosa PAO1; assay: Quantitative capillary chemotaxis assay, wild type; assay type: cell-based; details: for Role of PA2652 ligand (chemoattractant or antagonist): authors' classification from chemotaxis results; for Concentration of maximum chemotactic response / Chemotactic response: wt PAO1; for Chemotactic response: ligands at 10 µM to 100 mM
# Experimental: Secondly, we assessed the capacity of the ligands identified to induce chemotaxis. To this end, we carried out quantitative capillary chemotaxis assays using the wt strain and PA2652 ligands at concentrations ranging from 10 µM to 100 mM.
# Overnight cultures of P. aeruginosa strains were diluted to an OD660 of 0.05 in MS medium (30 mM Na2HPO4, 20 mM KH2PO4, 25 mM NH4NO3, 1 mM MgSO4) supplemented with 6 mg l^−1 Fe-citrate, trace elements[81] and 15 mM glucose as carbon source, and grown at 37 °C with orbital shaking (200 rpm). At an OD660 of 0.4 ([…]) cultures were centrifuged at 1,700 × g for 5 min and the resulting pellet was washed twice with chemotaxis buffer (50 mM potassium phosphate, […], 0.05% (v/v) glycerol, pH 7.0). Subsequently, the cells were resuspended in the same buffer, adjusted to an OD660 of 0.1 and 230 µl aliquots of the bacterial cultures were placed into 96-well plates. For the quantitative assays, one-microliter capillary tubes (Microcaps, Drummond Scientific, Ref. P1424) were heat-sealed at one end and filled with either the chemotaxis buffer (negative control) or chemotaxis buffer containing the chemoeffectors to test. The capillaries were immersed into the bacterial suspensions at its open end. After 30 min at room temperature, capillaries were removed from the bacterial suspensions, rinsed with sterile water and the content expelled into 1 ml of M9 medium salts. Serial dilutions were plated onto M9 minimal medium (containing the appropriate antibiotics) supplemented with 15 mM glucose as carbon source. The number of colony forming units was determined after overnight incubation. In all cases, data were corrected with the number of cells that swam into buffer containing capillaries.
# [5] = test system: Pseudomonas aeruginosa PAO1; assay: Capillary chemotaxis assay in presence of antagonists; assay type: cell-based; details: for Effect of antagonist on chemotaxis toward L-alanine: 1 mM L-alanine, 20 or 40 mM antagonist; for Effect of antagonist on chemotaxis toward L-malic acid: 1 mM L-malic acid, 10, 20 and 40 mM antagonist in suspension and capillary
# Experimental: To this end we conducted chemotaxis assays toward L-malic acid in the absence or presence of 10, 20 and 40 mM of citraconic and D,L-methylsuccinic acids (that were added to both, the bacterial suspension and the chemoattractant solution). […] To verify whether the presence of antagonists may have a global inhibitory effect on the chemotactic properties of P. aeruginosa we performed assays toward L-alanine, a chemoattractant recognized by the receptors PctA and PctB[15], in the presence antagonists.
# To determine the effect of antagonists in the chemotactic properties of PAO1, the assay was performed as previously described with two minor modifications: (i) Capillary tubes were filled with chemotaxis buffer containing 1 mM of the chemoattractants (L-malic acid or L-alanine) and 10–40 mM of the antagonists (methylsuccinic or citraconic acids); (ii) Bacterial cultures were washed with chemotaxis buffer and cells were finally resuspended in the same buffer but containing equimolar concentrations of methylsuccinic/citraconic acids to those present in the capillary tubes.
# [6] = target: the molecule itself; assay: AUC; sedimentation velocity, ligand-free protein at 5-20 uM, 48 000 rpm, 7 °C, 20 mM PIPES pH 7.0
molecule,measurement,setting,value
"O=C(O)CC(Br)C(=O)O (racemic) [D,L-bromosuccinic acid]",Tm increases,PA2652-LBD [1],more than 2 °C
same,Kd,PA2652-LBD [2],1240 ± 700 µM
same,Binding in ITC,PA2652-LBD [2],YES
same,Ability to support bacterial growth as sole carbon source,[3],poorly supported bacterial growth
same,Role of PA2652 ligand (chemoattractant or antagonist),[4],chemoattractants
same,Concentration of maximum chemotactic response,[4],10 mM
same,Chemotactic response,[4],Significant responses; also recorded: significant chemotaxis
"CC(O)(CC(=O)O)C(=O)O (racemic) [D,L-citramalic acid]",Tm increases,PA2652-LBD [1],hits
same,Kd,PA2652-LBD [2],61 ± 4 µM
same,Binding in ITC,PA2652-LBD [2],YES
same,Ability to support bacterial growth as sole carbon source,[3],able to efficiently sustain growth
same,Concentration of maximum chemotactic response,[4],10 mM
same,Chemotactic response,[4],Significant responses; also recorded: significant chemotaxis
"CC(CC(=O)O)C(=O)O (racemic) [D,L-methylsuccinic acid]",Kd,PA2652-LBD [2],224 ± 10 µM
same,Binding to PA2652-LBD in ITC (in words),PA2652-LBD [2],detection of binding
same,Binding in ITC,PA2652-LBD [2],YES
same,Ability to support bacterial growth as sole carbon source,[3],able to efficiently sustain growth
same,Chemotactic response,[4],Minor but statistically significant responses
same,Chemotactic response,[4]; listed as methylsuccinic acid,very minor responses
same,Effect of antagonist on chemotaxis toward L-alanine,[5],did not significantly alter the chemotaxis
same,Effect of antagonist on chemotaxis toward L-malic acid,[5],reduced the chemotaxis toward L-malic acid
C[C@@](O)(CC(=O)O)C(=O)O [D-citramalic acid],Binding to PA2652-LBD in ITC (in words),PA2652-LBD [2],no binding was observed
O=C(O)C[C@@H](O)C(=O)O [D-malic acid],Tm Shift,PA2652-LBD [1],No significant shift
same,Tm increases,PA2652-LBD [1],did not cause significant increases
same,Binding to PA2652-LBD in ITC (in words),PA2652-LBD [2],did not show binding; also recorded: No binding
C[C@H](CC(=O)O)C(=O)O [D-methylsuccinic acid],Binding to PA2652-LBD in ITC (in words),PA2652-LBD [2],no binding was observed
O=C(O)/C=C/C(=O)O [Fumaric acid],Tm Shift,PA2652-LBD [1],No significant shift
same,Binding to PA2652-LBD in ITC (in words),PA2652-LBD [2],No binding
same,Binding to PA2652-LBD in ITC (in words),PA2652-LBD [2]; listed as fumaric acid,absence of binding
O=C(O)CCCC(=O)O [Glutaric acid],Tm Shift,PA2652-LBD [1],No significant shift
N[C@@H](CC(=O)O)C(=O)O [L-Aspartic acid],Tm Shift,PA2652-LBD [1],No significant shift
same,Binding to PA2652-LBD in ITC (in words),PA2652-LBD [2]; listed as L-aminosuccinic acid,No binding
same,Binding to PA2652-LBD in ITC (in words),PA2652-LBD [2]; listed as aminosuccinic acid,absence of binding
C[C@](O)(CC(=O)O)C(=O)O [L-citramalic acid],Role of PA2652 ligand (chemoattractant or antagonist),[4],chemoattractants
C[C@@H](CC(=O)O)C(=O)O [L-methylsuccinic acid],Role of PA2652 ligand (chemoattractant or antagonist),[4],antagonists
O=C(O)[C@H](O)[C@@H](O)C(=O)O [L-tartaric acid],Tm Shift,PA2652-LBD [1],No significant shift
same,Binding to PA2652-LBD in ITC (in words),PA2652-LBD [2],No binding
same,Binding to PA2652-LBD in ITC (in words),PA2652-LBD [2]; listed as tartaric acid,absence of binding
C[C@@H](O)[C@H](N)C(=O)O [L-threonine],Tm Shift,PA2652-LBD [1],No significant shift
same,Binding to PA2652-LBD in ITC (in words),PA2652-LBD [2],No binding
O=C(O)CC(=O)C(=O)O [Oxaloacetic acid],Tm Shift,PA2652-LBD [1],No significant shift
same,Binding to PA2652-LBD in ITC (in words),PA2652-LBD [2],No binding
same,Binding to PA2652-LBD in ITC (in words),PA2652-LBD [2]; listed as oxalacetic acid,absence of binding
O=C(O)CCC(=O)O [Succinic acid],Tm Shift,PA2652-LBD [1],No significant shift
same,Binding to PA2652-LBD in ITC (in words),PA2652-LBD [2],No binding
same,Binding to PA2652-LBD in ITC (in words),PA2652-LBD [2]; listed as succinic acid,absence of binding
C/C(=C/C(=O)O)C(=O)O [citraconic acid],Tm increases,PA2652-LBD [1],hits
same,Kd,PA2652-LBD [2],210 ± 15 µM
same,Binding in ITC,PA2652-LBD [2],YES
same,Ability to support bacterial growth as sole carbon source,[3],could not be used as sole carbon source
same,Role of PA2652 ligand (chemoattractant or antagonist),[4],antagonists
same,Chemotactic response,[4],did not cause any chemotactic response and no
same,Effect of antagonist on chemotaxis toward L-alanine,[5],did not significantly alter the chemotaxis
same,Effect of antagonist on chemotaxis toward L-malic acid,[5],reduced the chemotaxis toward L-malic acid
"ligand binding domain (LBD) of the chemoreceptor PA2652 (domain or fragment, Pseudomonas aeruginosa PAO1, UniProt Q9I0I6 34-205, looked up, No removal of the tag is described; this is surmised; also called PA2652-LBD) KKQADAEVKDTRERLLGDRRAELEHYVQIAMGSIQAEYDRSANGDLNARAEAIARLSKIKYGKDGYIFGYDSQVVRLFRGDSPVDVGKSFRDRRDPSGVYLNRELVEAGRNGSHYVTYTSPLPGNESVMVPKLSYTLYLPKWDMVIGSAINLDGVEAQLVEIKQDIDERIGT",stoichiometry N,[6],2
